Reference: patent US12629374B2, “Antimalarial agents” (Merck Sharp & Dohme LLC, priority 2020, dated 2026)

These compounds were tested on ring stage parasites (assay: Parasite growth potency assay, 72 hours, LDH readout). Conditions: 72 h, parasite growth measured by LDH assay after 72 hours at 37° C.; 0.7% rings, 2% haematocrit; read-out: EC50.
Type: cell-based
How it was run: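 Parasite growth was quantified by LDH assay after a −80 °C freeze-thaw. Before that, compound was incubated for 72 h at 37 °C under humidified gas with ring-stage cultures adjusted to 0.7% parasitemia and 2% haematocrit in serum- and albumax-supplemented RPMI-Hepes.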
Compound `C#CCC[C@H](c1cccc(C(=O)N[C@H]2CC(C)(C)Oc3ccccc32)c1)N1C(=N)NC(CC)(CC)CC1=O` [Example 214C, 3-[(1R)-1-(4,4-diethyl-2-imino-6-oxo-hexahydropyrimidin-1-yl)pent-4-ynyl]-N-(2,2-dimethylchroman-4-yl)benzamide] has an EC50 of 0.4 nM.
Work on `CCC1(CC)CC(=O)N(Cc2cccc(C(=O)N[C@@H]3CCOc4ccc(Cl)cc43)c2)C(=N)N1` [Example 215A, N-(6-chlorochroman-4-yl)-3-[(4,4-diethyl-2-imino-6-oxo-hexahydropyrimidin-1-yl)methyl]benzamide] yielded an EC50 of 70 nM.
`C[C@H](c1cccc(C(=O)NC2c3ccccc3OC(C)(C)C2(C)O)c1)N1C(=N)NC(C)(C)CC1=O` (stereo partly drawn) [Example 222, N-(3-hydroxy-2,2,3-trimethyl-chroman-4-yl)-3-[(1R)-1-(2-imino-4,4-dimethyl-6-oxo-hexahydropyrimidin-1-yl)ethyl]benzamide] gave an EC50 of 2.28 nM.
Work on `CCC1(CC)CC(=O)N(C(COC)c2cccc(C(=O)N[C@@H]3c4ccccc4C[C@H]3O)c2)C(=N)N1` (stereo partly drawn) [Example 223, 3-[1-(4,4-diethyl-2-imino-6-oxo-hexahydropyrimidin-1-yl)-2-methoxy-ethyl]-N-[(1R,2R)-2-hydroxyindan-1-yl]benzamide] yielded an EC50 of 2.3 nM.
Compound `CC1(C)CC(=O)N(C(CC(F)(F)F)c2cccc(C(=O)N[C@@H]3c4ccccc4C[C@H]3O)c2)C(=N)N1` (stereo partly drawn) [Example 224, N-[(1R,2R)-2-hydroxyindan-1-yl]-3-[3,3,3-trifluoro-1-(2-imino-4,4-dimethyl-6-oxo-hexahydropyrimidin-1-yl)propyl]benzamide] has an EC50 of 15.5 nM.
In the case of `CC[C@]1(C)CC(=O)N([C@H](C)c2cccc(C(=O)NC3c4ccccc4OC(C)(C)C3(C)O)c2)C(=N)N1` (stereo partly drawn) [Example 225, 3-[(1R)-1-[(4R)-4-ethyl-2-imino-4-methyl-6-oxo-hexahydropyrimidin-1-yl]ethyl]-N-(3-hydroxy-2,2,3-trimethyl-chroman-4-yl)benzamide], the EC50 is reported as 0.32 nM.
`CCC1(CC)CC(=O)N([C@H](CCOC)c2cccc(C(=O)NC3c4ccccc4CCC3O)c2)C(=N)N1` (stereo partly drawn) [Example 226, 3-[(1R)-1-(4,4-diethyl-2-imino-6-oxo-hexahydropyrimidin-1-yl)-3-methoxy-propyl]-N-(2-hydroxytetralin-1-yl)benzamide] gave an EC50 of 2.2 nM.
With `CCC1(CC)NC(=N)N([C@H](CCOC)c2cccc(C(=O)N[C@@H]3c4ccccc4C[C@H]3O)c2)C(=O)C1C` (stereo partly drawn) [Example 227A, 3-[(1R)-1-(4,4-diethyl-2-imino-5-methyl-6-oxo-hexahydropyrimidin-1-yl)-3-methoxy-propyl]-N-[(1R,2R)-2-hydroxyindan-1-yl]benzamide] the EC50 was 1.25 nM.
`CCC1(CC)CC(=O)N([C@H](C)c2cccc(C(=O)N[C@@H]3c4ccccc4OC(C)(C)[C@@]3(C)O)c2)C(=N)N1` [Example 228, 3-[(1R)-1-(4,4-diethyl-2-imino-6-oxo-hexahydropyrimidin-1-yl)ethyl]-N-[(3S,4R)-3-hydroxy-2,2,3-trimethyl-chroman-4-yl]benzamide] gave an EC50 of 0.34 nM.
`CCC1(CC)CC(=O)N(C(COC)c2cccc(C(=O)N[C@@H]3c4ccccc4OC[C@]3(C)O)c2)C(=N)N1` (stereo partly drawn) [Example 229, 3-[1-(4,4-diethyl-2-imino-6-oxo-hexahydropyrimidin-1-yl)-2-methoxy-ethyl]-N-[(3R,4R)-3-hydroxy-3-methyl-chroman-4-yl]benzamide] gave an EC50 of 2.2 nM.
Work on `COCC[C@H](c1cccc(C(=O)N[C@@H]2c3ccccc3OC(C)(C)[C@@]2(C)O)c1)N1C(=N)NC(C)(C)CC1=O` [Example 231, N-[(3S,4R)-3-hydroxy-2,2,3-trimethyl-chroman-4-yl]-3-[(1R)-1-(2-imino-4,4-dimethyl-6-oxo-hexahydropyrimidin-1-yl)-3-methoxy-propyl]benzamide] yielded an EC50 of 2.9 nM.
In the case of `CCC1(CC)CC(=O)N(C(COC)c2cccc(C(=O)N[C@@H]3c4ccccc4OC(C)(C)[C@H]3O)c2)C(=N)N1` (stereo partly drawn) [Example 232, 3-[l-(4,4-diethyl-2-imino-6-oxo-hexahydropyrimidin-1-yl)-2-methoxy-ethyl]-N-[(3S,4R)-3-hydroxy-2,2-dimethyl-chroman-4-yl]benzamide], the EC50 is reported as 0.32 nM.
In the case of `CC1(C)CC(=O)N(C(CC(F)(F)F)c2cccc(C(=O)N[C@@H]3c4ccccc4OC(C)(C)[C@H]3O)c2)C(=N)N1` (stereo partly drawn) [Example 233, N-[(3S,4R)-3-hydroxy-2,2-dimethyl-chroman-4-yl]-3-[3,3,3-trifluoro-1-(2-imino-4,4-dimethyl-6-oxo-hexahydropyrimidin-1-yl)propyl]benzamide], the EC50 is reported as 1.4 nM.
With `COCC[C@H](c1cccc(C(=O)NC2c3cc(F)ccc3OC(C)(C)C2(C)O)c1)N1C(=N)NC(C)(C)CC1=O` (stereo partly drawn) [Example 235, N-(6-fluoro-3-hydroxy-2,2,3-trimethyl-chroman-4-yl)-3-[(1R)-1-(2-imino-4,4-dimethyl-6-oxo-hexahydropyrimidin-1-yl)-3-methoxy-propyl]benzamide] the EC50 was 0.32 nM.
`CCC1(CC)CC(=O)N(C(CCOC)c2ccc(C(F)(F)F)c(C(=O)N[C@@H]3c4ccccc4C[C@H]3O)c2)C(=N)N1` (stereo partly drawn) [Example 239, 5-[1-(4,4-diethyl-2-imino-6-oxo-hexahydropyrimidin-1-yl)-3-methoxy-propyl]-N-[(1R,2R)-2-hydroxyindan-1-yl]-2-(trifluoromethyl)benzamide] showed an EC50 of 3.6 nM.
`CCC1(CC)CC(=O)N(C(CCOC)c2ccc(C(F)(F)F)c(C(=O)N[C@@H]3c4ccccc4C[C@@]3(C)O)c2)C(=N)N1` (stereo partly drawn) [Example 241, 5-[1-(4,4-diethyl-2-imino-6-oxo-hexahydropyrimidin-1-yl)-3-methoxy-propyl]-N-[(1R,2R)-2-hydroxy-2-methyl-indan-1-yl]-2-(trifluoromethyl)benzamide] was tested, and the EC50 was 9.84 nM.
`CCC1(CC)CC(=O)N(C(CCOC)c2ccc(C(F)(F)F)c(C(=O)N[C@@H]3c4ccccc4C[C@]3(C)O)c2)C(=N)N1` (stereo partly drawn) [Example 242, 5-[1-(4,4-diethyl-2-imino-6-oxo-hexahydropyrimidin-1-yl)-3-methoxy-propyl]-N-[(1R,2S)-2-hydroxy-2-methyl-indan-1-yl]-2-(trifluoromethyl)benzamide] gave an EC50 of 2.28 nM.
`CCC1(CC)CC(=O)N(C(CCOC)c2ccc(C(F)(F)F)c(C(=O)N[C@@H]3c4ccccc4OC[C@H]3O)c2)C(=N)N1` (stereo partly drawn) [Example 243, 5-[1-(4,4-diethyl-2-imino-6-oxo-hexahydropyrimidin-1-yl)-3-methoxy-propyl]-N-[(3S,4R)-3-hydroxychroman-4-yl]-2-(trifluoromethyl)benzamide] gave an EC50 of 6.4 nM.
Work on `CCC1(CC)CC(=O)N(C(CCOC)c2ccc(C(F)(F)F)c(C(=O)N[C@@H]3c4ccccc4OC[C@@]3(C)O)c2)C(=N)N1` (stereo partly drawn) [Example 244, 5-[1-(4,4-diethyl-2-imino-6-oxo-hexahydropyrimidin-1-yl)-3-methoxy-propyl]-N-[(3S,4R)-3-hydroxy-3-methyl-chroman-4-yl]-2-(trifluoromethyl)benzamide] yielded an EC50 of 6.13 nM.
With `CCC1(CC)CC(=O)N(C(CCOC)c2ccc(C(F)(F)F)c(C(=O)N[C@@H]3c4ccccc4OC[C@]3(C)O)c2)C(=N)N1` (stereo partly drawn) [Example 245, 5-[1-(4,4-diethyl-2-imino-6-oxo-hexahydropyrimidin-1-yl)-3-methoxy-propyl]-N-[(3R,4R)-3-hydroxy-3-methyl-chroman-4-yl]-2-(trifluoromethyl)benzamide] the EC50 was 1.6 nM.
Work on `CCC1(CC)CC(=O)N(C(CCOC)c2ccc(C(F)(F)F)c(C(=O)N[C@@H]3c4ccccc4OC(C)(C)[C@H]3O)c2)C(=N)N1` (stereo partly drawn) [Example 246, 5-[1-(4,4-diethyl-2-imino-6-oxo-hexahydropyrimidin-1-yl)-3-methoxy-propyl]-N-[(3S,4R)-3-hydroxy-2,2-dimethyl-chroman-4-yl]-2-(trifluoromethyl)benzamide] yielded an EC50 of 1.74 nM.

Same assay, conditions: parasite growth measured by LDH assay after 72 hours at 37° C.; 0.7% rings, 2% haematocrit; read-out: EC50
With `CCC1(CC)NC(=N)N([C@H](CCOC)c2cccc(C(=O)N[C@@H]3c4ccccc4C[C@H]3O)c2)C(=O)C1C` (stereo partly drawn) [Example 227B, 3-[(1R)-1-(4,4-diethyl-2-imino-5-methyl-6-oxo-hexahydropyrimidin-1-yl)-3-methoxy-propyl]-N-[(1R,2R)-2-hydroxyindan-1-yl]benzamide] the EC50 was 1.16 nM.
For `CCC1(CC)CC(=O)N(C(COC)c2cccc(C(=O)N[C@@H]3c4ccccc4OC[C@@]3(C)O)c2)C(=N)N1` (stereo partly drawn) [Example 230, 3-[l-(4,4-diethyl-2-imino-6-oxo-hexahydropyrimidin-1-yl)-2-methoxy-ethyl]-N-[(3S,4R)-3-hydroxy-3-methyl-chroman-4-yl]benzamide], the EC50 was 0.84 nM.
